Laboratory results: ChEMBL document CHEMBL6120963, “Discovery of Novel PROTAC SIRT6 Degraders with Potent Efficacy against Hepatocellular Carcinoma” (J Med Chem, 2024)
Activity calls are given as the source filed them. The calls are words filed in the database; no cut-off is given here.

What was measured:
Type in all cases: cell-based
SK-HEP1 [1] = test: Induction of SIRT6 degradation in human SK-HEP1 cells at 0.5 uM incubated for 36 hrs by In-Cell ELISA relative to control
SK-HEP1 [2] = test: Induction of SIRT6 degradation in human SK-HEP1 cells at 5 uM incubated for 36 hrs by In-Cell ELISA relative to control
[3] = biological target: T1, Protein cereblon/NAD-dependent protein deacylase sirtuin-6 (Homo sapiens, UniProt Q8N6T7+Q96SW2); test: PROTAC activity at CRBN/SIRT6 in human SK-HEP1 cells assessed as induction of SIRT6 degradation at 200 nM incubated for 36 hrs by In-Cell ELISA relative to control
[4] = biological target: T1, Protein cereblon/NAD-dependent protein deacylase sirtuin-6; test: PROTAC activity at CRBN/SIRT6 in human SK-HEP1 cells assessed as induction of SIRT6 degradation at 2 uM incubated for 36 hrs by In-Cell ELISA relative to control
[5] = biological target: T1, Protein cereblon/NAD-dependent protein deacylase sirtuin-6; test: PROTAC activity at CRBN/SIRT6 in human SK-HEP1 cells assessed as induction of SIRT6 degradation at 2 to 3 uM incubated for 36 hrs by Western blot analysis; conditions: dose 2-3 µM
[6] = biological target: T1, Protein cereblon/NAD-dependent protein deacylase sirtuin-6; test: PROTAC activity at CRBN/SIRT6 in human SK-HEP1 cells assessed as induction of SIRT6 degradation at 0.5 uM incubated for 36 hrs by In-Cell ELISA relative to control
[7] = biological target: T1, Protein cereblon/NAD-dependent protein deacylase sirtuin-6; test: PROTAC activity at CRBN/SIRT6 in human SK-HEP1 cells assessed as induction of SIRT6 degradation at 5 uM incubated for 36 hrs by In-Cell ELISA relative to control
[8] = biological target: T1, Protein cereblon/NAD-dependent protein deacylase sirtuin-6; test: PROTAC activity at CRBN/SIRT6 in human SK-HEP1 cells assessed as hook effect upto 5 uM incubated for 36 hrs by Western blot analysis

T1 sequence (Q8N6T7 2-355 limits assumed): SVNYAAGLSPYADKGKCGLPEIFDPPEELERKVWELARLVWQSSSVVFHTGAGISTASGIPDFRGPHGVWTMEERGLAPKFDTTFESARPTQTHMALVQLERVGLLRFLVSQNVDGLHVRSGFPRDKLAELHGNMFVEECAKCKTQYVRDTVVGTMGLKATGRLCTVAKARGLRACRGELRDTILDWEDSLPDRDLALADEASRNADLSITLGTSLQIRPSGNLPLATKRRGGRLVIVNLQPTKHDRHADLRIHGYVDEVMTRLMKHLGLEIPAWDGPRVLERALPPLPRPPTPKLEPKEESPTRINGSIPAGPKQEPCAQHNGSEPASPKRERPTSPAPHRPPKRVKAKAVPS
T1 sequence (Q96SW2 whole entry partner): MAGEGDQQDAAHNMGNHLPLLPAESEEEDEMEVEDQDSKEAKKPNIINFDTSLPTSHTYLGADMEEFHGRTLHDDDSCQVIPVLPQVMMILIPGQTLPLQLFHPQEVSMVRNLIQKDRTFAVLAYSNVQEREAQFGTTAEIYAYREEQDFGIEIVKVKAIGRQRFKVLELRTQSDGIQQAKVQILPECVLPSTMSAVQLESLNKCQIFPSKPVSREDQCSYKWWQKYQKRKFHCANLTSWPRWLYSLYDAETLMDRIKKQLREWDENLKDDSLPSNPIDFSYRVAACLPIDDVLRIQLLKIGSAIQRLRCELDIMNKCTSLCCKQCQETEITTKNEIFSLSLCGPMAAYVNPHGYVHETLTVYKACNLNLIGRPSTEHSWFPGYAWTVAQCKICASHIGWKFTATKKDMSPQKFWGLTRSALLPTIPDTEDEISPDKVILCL

SMILES | Activity [3] | Activity [4] | Activity [5] | Activity [6] | Activity [7] | further results
Nc1cccc2c1C(=O)N(C1CCC(=O)NC1=O)C2=O (centres undefined) |  |  |  |  |  | Activity (SK-HEP1 [1]): 6.5%; Activity (SK-HEP1 [2]): 10.9%
Nc1cc(N2CCN(CCNCC3CN(c4cc5c(cc4F)C(=O)N(C4CCC(=O)NC4=O)C5=O)C3)CC2)ccc1[N+](=O)[O-] (centres undefined) | 46.1% | 83.5% |  |  |  | 
Nc1cc(N2CCN(CCNCCCC3CCN(c4cc5c(cc4F)C(=O)N(C4CCC(=O)NC4=O)C5=O)CC3)CC2)ccc1[N+](=O)[O-] (centres undefined) | 64.3% | 97.9% | Active |  |  | 
Nc1cc(N2CCN(CCCC3CCN(c4ccc5c(c4)C(=O)N(C4CCC(=O)NC4=O)C5=O)CC3)CC2)ccc1[N+](=O)[O-] (centres undefined) | 84.9% | 98.9% | Active |  |  | 
Nc1cc(N2CCN(CCNCCC3CCN(c4cc5c(cc4F)C(=O)N(C4CCC(=O)NC4=O)C5=O)CC3)CC2)ccc1[N+](=O)[O-] (centres undefined) |  | 74.8% | Active |  |  | 
Nc1cc(N2CCN(CCC3CCN(c4ccc5c(c4)C(=O)N(C4CCC(=O)NC4=O)C5=O)CC3)CC2)ccc1[N+](=O)[O-] (centres undefined) | 11.2% | 79.6% | Active |  |  | 
Nc1cc(N2CCN(CCCC(=O)Nc3cccc4c3C(=O)N(C3CCC(=O)NC3=O)C4=O)CC2)ccc1[N+](=O)[O-] (centres undefined) |  |  |  | 72.1% | 87.3% | 
Nc1cc(N2CCN(CCNCC3CCN(c4cc5c(cc4F)C(=O)N(C4CCC(=O)NC4=O)C5=O)CC3)CC2)ccc1[N+](=O)[O-] (centres undefined) | 60.5% | 84.7% | Active |  |  | 
Nc1cc(N2CCN(CCCCC(=O)Nc3cccc4c3C(=O)N(C3CCC(=O)NC3=O)C4=O)CC2)ccc1[N+](=O)[O-] (centres undefined) |  |  |  | 18.2% | 49.3% | 
Nc1cc(N2CCN(CCCCCC(=O)Nc3cccc4c3C(=O)N(C3CCC(=O)NC3=O)C4=O)CC2)ccc1[N+](=O)[O-] (centres undefined) |  |  |  | 47.8% | 36.8% | 
Nc1cc(N2CCN(CCNC(=O)COc3cccc4c3C(=O)N(C3CCC(=O)NC3=O)C4=O)CC2)ccc1[N+](=O)[O-] (centres undefined) |  |  |  | 85.7% | 72.3% | 
Nc1cc(N2CCN(CC3C4CN(c5ccc6c(c5)C(=O)N(C5CCC(=O)NC5=O)C6=O)CC34)CC2)ccc1[N+](=O)[O-] (centres undefined) |  | 17.8% |  |  |  | 
Nc1cc(N2CCN(CCC(=O)Nc3cccc4c3C(=O)N(C3CCC(=O)NC3=O)C4=O)CC2)ccc1[N+](=O)[O-] (centres undefined) |  |  |  | 25.6% | 47.2% | 
Nc1cc(N2CCN(CCC3CCN(c4cc5c(cc4F)C(=O)N(C4CCC(=O)NC4=O)C5=O)CC3)CC2)ccc1[N+](=O)[O-] (centres undefined) | < 10% | 19.8% |  |  |  | 
Nc1cc(N2CCN(C(=O)COc3cccc4c3C(=O)N(C3CCC(=O)NC3=O)C4=O)CC2)ccc1[N+](=O)[O-] (centres undefined) |  |  |  | 32.2% | 15.8% | 
Nc1cc(N2CCN(CCNCC3C4CN(c5cc6c(cc5F)C(=O)N(C5CCC(=O)NC5=O)C6=O)CC34)CC2)ccc1[N+](=O)[O-] (centres undefined) |  | < 10% |  |  |  | 
Nc1cc(N2CCN(CC3CN(c4cc5c(cc4F)C(=O)N(C4CCC(=O)NC4=O)C5=O)C3)CC2)ccc1[N+](=O)[O-] (centres undefined) | < 10% | 20.6% |  |  |  | 
Nc1cc(N2CCN(CCNCC3CCCN(c4ccc5c(c4)C(=O)N(C4CCC(=O)NC4=O)C5=O)C3)CC2)ccc1[N+](=O)[O-] (centres undefined) | 74.2% | 51.6% |  |  |  | 

SMILES | Activity [3] | Activity [4] | Activity [5] | Activity [6] | Activity [7] | further results
Nc1cc(N2CCN(CCNCC3CCN(c4ccc5c(c4)C(=O)N(C4CCC(=O)NC4=O)C5=O)C3)CC2)ccc1[N+](=O)[O-] (centres undefined) |  | < 10% |  |  |  | 
Nc1cc(N2CCN(CCOCCOCCOCC(=O)Nc3cccc4c3C(=O)N(C3CCC(=O)NC3=O)C4=O)CC2)ccc1[N+](=O)[O-] (centres undefined) |  |  | Active | 44.9% | 80.8% | 
Nc1cc(N2CCN(C(=O)CNc3cccc4c3C(=O)N(C3CCC(=O)NC3=O)C4=O)CC2)ccc1[N+](=O)[O-] (centres undefined) |  |  |  |  | 15.4% | 
Nc1cc(N2CCN(CCOCCOCC(=O)Nc3cccc4c3C(=O)N(C3CCC(=O)NC3=O)C4=O)CC2)ccc1[N+](=O)[O-] (centres undefined) |  |  | Active | 46.7% | 90.6% | 
Nc1cc(N2CCN(CCNCCC3CCN(c4ccc5c(c4)C(=O)N(C4CCC(=O)NC4=O)C5=O)CC3)CC2)ccc1[N+](=O)[O-] (centres undefined) | 49.3% | 73.6% |  |  |  | 
Nc1cc(N2CCN(CCNCC3CCN(c4ccc5c(c4)C(=O)N(C4CCC(=O)NC4=O)C5=O)CC3)CC2)ccc1[N+](=O)[O-] (centres undefined) |  | < 10% |  |  |  | 
Nc1cc(N2CCN(CC3CCCN(c4ccc5c(c4)C(=O)N(C4CCC(=O)NC4=O)C5=O)C3)CC2)ccc1[N+](=O)[O-] (centres undefined) | < 10% | 87.1% | Active |  |  | 
Nc1cc(N2CCN(CCNCCCC3CCN(c4ccc5c(c4)C(=O)N(C4CCC(=O)NC4=O)C5=O)CC3)CC2)ccc1[N+](=O)[O-] (centres undefined) | 53.2% | 82.4% | Active |  |  | 
Nc1cc(N2CCN(CCNCC3CCCN(c4cc5c(cc4F)C(=O)N(C4CCC(=O)NC4=O)C5=O)C3)CC2)ccc1[N+](=O)[O-] (centres undefined) | 81.2% | 98.5% | Active |  |  | 
Nc1cc(N2CCN(CCOCCOCCOCCOCC(=O)Nc3cccc4c3C(=O)N(C3CCC(=O)NC3=O)C4=O)CC2)ccc1[N+](=O)[O-] (centres undefined) |  |  |  | 27.8% |  | 
Nc1cc(N2CCN(CC3CCCN(c4cc5c(cc4F)C(=O)N(C4CCC(=O)NC4=O)C5=O)C3)CC2)ccc1[N+](=O)[O-] (centres undefined) | < 10% | 56.6% |  |  |  | Activity [8]: inactive
Nc1cc(N2CCN(CC(=O)Nc3cccc4c3C(=O)N(C3CCC(=O)NC3=O)C4=O)CC2)ccc1[N+](=O)[O-] (centres undefined) |  |  |  | < 5% | 17.4% | 
Nc1cc(N2CCN(CC3CCN(c4cc5c(cc4F)C(=O)N(C4CCC(=O)NC4=O)C5=O)C3)CC2)ccc1[N+](=O)[O-] (centres undefined) | 94.5% | 99.8% | Active |  |  | 
Nc1cc(N2CCN(CC3C4CN(c5cc6c(cc5F)C(=O)N(C5CCC(=O)NC5=O)C6=O)CC34)CC2)ccc1[N+](=O)[O-] (centres undefined) | 89.4% | 95.6% | Active |  |  | 
Nc1cc(N2CCN(CCNCC3CCN(c4cc5c(cc4F)C(=O)N(C4CCC(=O)NC4=O)C5=O)C3)CC2)ccc1[N+](=O)[O-] (centres undefined) | 66.2% | 78.4% | Active |  |  | 
Nc1cc(N2CCN(CCNCC3C4CN(c5ccc6c(c5)C(=O)N(C5CCC(=O)NC5=O)C6=O)CC34)CC2)ccc1[N+](=O)[O-] (centres undefined) |  | 15.4% |  |  |  | 
Nc1cc(N2CCN(CC3CN(c4ccc5c(c4)C(=O)N(C4CCC(=O)NC4=O)C5=O)C3)CC2)ccc1[N+](=O)[O-] (centres undefined) | 50.6% | 11% |  |  |  | 
Nc1cc(N2CCN(CCNC(=O)CNc3cccc4c3C(=O)N(C3CCC(=O)NC3=O)C4=O)CC2)ccc1[N+](=O)[O-] (centres undefined) |  |  | Active | 86.5% | 91.4% | 
